In patent US20180155344A1, “TRICYCLIC PIPERIDINE COMPOUNDS” (ACTELION PHARMACEUTICALS LTD, priority 2015, published 2018):

Biological target: T1, human TPH1 (Homo sapiens, UniProt P17752)
T1 sequence (P17752 1-444): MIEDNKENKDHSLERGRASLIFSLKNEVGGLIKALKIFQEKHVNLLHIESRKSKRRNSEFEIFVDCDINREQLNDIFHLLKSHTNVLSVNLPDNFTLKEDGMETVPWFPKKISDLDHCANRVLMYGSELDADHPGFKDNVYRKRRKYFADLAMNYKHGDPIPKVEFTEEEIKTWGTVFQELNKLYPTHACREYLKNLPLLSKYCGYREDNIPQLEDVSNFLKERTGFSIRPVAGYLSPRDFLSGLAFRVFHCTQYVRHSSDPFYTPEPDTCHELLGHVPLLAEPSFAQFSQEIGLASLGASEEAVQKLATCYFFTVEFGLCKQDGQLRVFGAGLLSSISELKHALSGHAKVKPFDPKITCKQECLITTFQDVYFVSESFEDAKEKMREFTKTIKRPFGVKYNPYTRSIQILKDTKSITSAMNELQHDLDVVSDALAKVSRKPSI
Experiment: biochemical
Description: Biochemical In Vitro Assay Using Fluorescence Readout
To generate the enzyme, full length human TPH1 is cloned into the plasmid pET20b(+) (Novagen) and expressed in E. coli. The bacterial cells are ruptured by sonication on ice and the lysate is cleared by centrifugation. The resulting protein in the pellet is re-extracted and TPH1 is purified from the obtained lysate by affinity chromatography using a pterin cosubstrate analog immobilized to the resin of the column. The protein is further purified by size exclusion chromatography to remove protein aggregates. The activity of TPH1 is determined by using a fluorescence assay. The enzyme activity assay is carried out at 15° C. with atmosphere oxygen for the duration of 60 minutes in a volume of 64 μl. The reaction is carried out in a 0.1 M Tris-HCl buffer, adjusted to pH 7.6, containing 1 mM DTT, 0.2 mg/mL catalase, 100 μM (±)-6-methyl-5,6,7,8-tetrahydropterine dihydrochloride, 40 μM L-tryptophan, and 40-80 nM of TPH1. The reaction is started by bringing together L-tryptophan with all the other reaction substituents and stopped by quenching with perchloric acid (HClO4). The amount of 5-hydroxy-L-tryptophan produced during the enzymatic reaction is determined by fluorescence readout. Fluorescence, as determined at 540 nm when excited at 300 nm wavelength, increases proportionally to the 5-hydroxy-L-tryptophan formed. Compounds are prepared as 10 mM stock solution in DMSO, then diluted in 384-well plates using DMSO followed by a transfer of the dilutions into the assay plate. Fluorescence is measured for each well and the fluorescence at 540 nm wavelength is compared to the fluorescence of the vehicle in place of compound. […] The calculated IC50 values may fluctuate depending on the daily biochemical assay performance. Fluctuations of this kind are known to those skilled in the art.

| SMILES | IC50 [nM] |
| --- | --- |
| CS(=O)(=O)Nc1ccc(OCC(=O)N2CCc3nc4ccccn4c3C2c2ccc(Cl)cc2F)c(Cl)n1 (centres unmarked) [Example 1.4.7, N-(6-chloro-5-(2-(1-(4-chloro-2-fluorophenyl)-3,4-dihydroimidazo[1,2-a:5,4-c′]dipyridin-2(1H)-yl)-2-oxoethoxy)pyridin-2-yl)methanesulfonamide] | 10 |
| COCCN(C)c1ccc(OCC(=O)N2CCc3nc4ccccn4c3C2c2ccc(Cl)cc2F)c(Cl)n1 (centres unmarked) [Example 1.4.8, 1-(1-(4-chloro-2-fluorophenyl)-3,4-dihydroimidazo[1,2-a:5,4-c′]dipyridin-2(1H)-yl)-2-((2-chloro-6-((2-methoxyethyl)(methyl)amino)pyridin-3-yl)oxy)ethan-1-one] | 39 |
| CS(=O)(=O)Nc1ccc(OCC(=O)N2CCc3nc4ccccn4c3C2c2ccc(Cl)cc2F)c(C2CC2)n1 (centres unmarked) [Example 1.4.9, N-(5-(2-(1-(4-chloro-2-fluorophenyl)-3,4-dihydroimidazo[1,2-a:5,4-c′]dipyridin-2(1H)-yl)-2-oxoethoxy)-6-cyclopropylpyridin-2-yl)methanesulfonamide] | 364 |
| CN(CCO)c1ccc(OCC(=O)N2CCc3nc4ccccn4c3C2c2ccc(Cl)cc2F)c(Cl)n1 (centres unmarked) [Example 1.4.10, 1-(1-(4-chloro-2-fluorophenyl)-3,4-dihydroimidazo[1,2-a:5,4-c′]dipyridin-2(1H)-yl)-2-((2-chloro-6-((2-hydroxyethyl)(methyl)amino)pyridin-3-yl)oxy)ethan-1-one] | 87 |
| CN(CC(F)(F)F)c1ccc(OCC(=O)N2CCc3nc4ccccn4c3C2c2ccc(Cl)cc2F)c(Cl)n1 (centres unmarked) [Example 1.4.11, 1-(1-(4-chloro-2-fluorophenyl)-3,4-dihydroimidazo[1,2-a:5,4-c′]dipyridin-2(1H)-yl)-2-((2-chloro-6-(methyl(2,2,2-trifluoroethyl)amino)pyridin-3-yl)oxy)ethan-1-one] | 14 |
| CN(C)c1ccc(OCC(=O)N2CCc3nc4ccccn4c3C2c2ccc(Cl)cc2F)c(Cl)n1 (centres unmarked) [Example 1.4.12, 1-(1-(4-chloro-2-fluorophenyl)-3,4-dihydroimidazo[1,2-a:5,4-c′]dipyridin-2(1H)-yl)-2-((2-chloro-6-(dimethylamino)pyridin-3-yl)oxy)ethan-1-one] | 58 |
| O=C(NC1CC1)c1ccc(OCC(=O)N2CCc3nc4ccccn4c3C2c2ccc(Cl)cc2F)c(C2CC2)n1 (centres unmarked) [Example 1.4.13, 5-(2-(1-(4-chloro-2-fluorophenyl)-3,4-dihydroimidazo[1,2-a:5,4-c′]dipyridin-2(1H)-yl)-2-oxoethoxy)-N,6-dicyclopropylpicolinamide] | 36 |
| CS(=O)(=O)c1ccc(OCC(=O)N2CCc3nc4ccccn4c3C2c2ccc(Cl)cc2F)c(Cl)n1 (centres unmarked) [Example 1.4.14, 1-(1-(4-chloro-2-fluorophenyl)-3,4-dihydroimidazo[1,2-a:5,4-c′]dipyridin-2(1H)-yl)-2-((2-chloro-6-(methylsulfonyl)pyridin-3-yl)oxy)ethan-1-one] | 287 |
| CN(C)C(=O)c1ccc(OC2(C(=O)N3CCc4nc5ccccn5c4C3c3ccc(Cl)cc3F)CC2)c(Cl)n1 (centres unmarked) [Example 1.4.15, 6-chloro-5-(1-(1-(4-chloro-2-fluorophenyl)-1,2,3,4-tetrahydroimidazo[1,2-a:5,4-c′]dipyridine-2-carbonyl)cyclopropoxy)-N,N-dimethylpicolinamide] | 323 |
| CS(=O)(=O)Nc1ccc(OC2(C(=O)N3CCc4nc5ccccn5c4C3c3ccc(Cl)cc3F)CC2)c(Cl)n1 (centres unmarked) [Example 1.4.16, N-(6-chloro-5-(1-(1-(4-chloro-2-fluorophenyl)-1,2,3,4-tetrahydroimidazo[1,2-a:5,4-c′]dipyridine-2-carbonyl)cyclopropoxy)pyridin-2-yl)methanesulfonamide] | 488 |
| CN(C)C(=O)c1ccc(OC(C)(C)C(=O)N2CCc3nc4ccccn4c3C2c2ccc(Cl)cc2F)c(Cl)n1 (centres unmarked) [Example 1.4.17, 6-chloro-5-((1-(1-(4-chloro-2-fluorophenyl)-3,4-dihydroimidazo[1,2-a:5,4-c′]dipyridin-2(1H)-yl)-2-methyl-1-oxopropan-2-yl)oxy)-N,N-dimethylpicolinamide] | 949 |
| O=C(COc1ccc(N2CCOCC2)cc1Cl)N1CCc2nc3ccccn3c2C1c1ccc(C2CC2)cc1F (centres unmarked) [Example 1.5.1, 2-(2-chloro-4-morpholinophenoxy)-1-(1-(4-cyclopropyl-2-fluorophenyl)-3,4-dihydroimidazo[1,2-a:5,4-c′]dipyridin-2(1H)-yl)ethan-1-one] | 9 |
| O=C(COc1ccc(N2CCOCC2)nc1Cl)N1CCc2nc3ccccn3c2C1c1ccc(C2CC2)cc1F (centres unmarked) [Example 1.5.2, 2-((2-chloro-6-morpholinopyridin-3-yl)oxy)-1-(1-(4-cyclopropyl-2-fluorophenyl)-3,4-dihydroimidazo[1,2-a:5,4-c′]dipyridin-2(1H)-yl)ethan-1-one] | 6 |
| Cc1nc(N(C)C)ccc1OCC(=O)N1CCc2nc3ccccn3c2C1c1ccc(C2CC2)cc1F (centres unmarked) [Example 1.5.3, 1-(1-(4-cyclopropyl-2-fluorophenyl)-3,4-dihydroimidazo[1,2-a:5,4-c′]dipyridin-2(1H)-yl)-2-((6-(dimethylamino)-2-methylpyridin-3-yl)oxy)ethan-1-one] | 42 |
| O=C(COc1cccnc1Cl)N1CCc2nc3ccccn3c2C1c1ccc(C2CC2)cc1F (centres unmarked) [Example 1.5.4, 2-((2-chloropyridin-3-yl)oxy)-1-(1-(4-cyclopropyl-2-fluorophenyl)-3,4-dihydroimidazo[1,2-a:5,4-c′]dipyridin-2(1H)-yl)ethan-1-one] | 34 |
| CCc1nc(C)ccc1OCC(=O)N1CCc2nc3ccccn3c2C1c1ccc(C2CC2)cc1F (centres unmarked) [Example 1.5.5, 1-(1-(4-cyclopropyl-2-fluorophenyl)-3,4-dihydroimidazo[1,2-a:5,4-c′]dipyridin-2(1H)-yl)-2-((2-ethyl-6-methylpyridin-3-yl)oxy)ethan-1-one] | 29 |
| O=C(COc1cccnc1C(F)(F)F)N1CCc2nc3ccccn3c2C1c1ccc(C2CC2)cc1F (centres unmarked) [Example 1.5.6, 1-(1-(4-cyclopropyl-2-fluorophenyl)-3,4-dihydroimidazo[1,2-a:5,4-c′]dipyridin-2(1H)-yl)-2-((2-(trifluoromethyl)pyridin-3-yl)oxy)ethan-1-one] | 13 |
| O=C(COc1ccc(N2CCOCC2)nc1Cl)N1CCc2nc3ccccn3c2C1c1cnc(N2CCOCC2)s1 (centres unmarked) [Example 1.6.1, 2-((2-chloro-6-morpholinopyridin-3-yl)oxy)-1-(1-(2-morpholinothiazol-5-yl)-3,4-dihydroimidazo[1,2-a:5,4-c′]dipyridin-2(1H)-yl)ethan-1-one] | 387 |
| CN(C)Cc1csc(C2c3c(nc4ccccn34)CCN2C(=O)COc2ccc(N3CCOCC3)nc2Cl)c1 (centres unmarked) [Example 1.7.1, 2-((2-chloro-6-morpholinopyridin-3-yl)oxy)-1-(1-(4-((dimethylamino)methyl)thiophen-2-yl)-3,4-dihydroimidazo[1,2-a:5,4-c′]dipyridin-2(1H)-yl)ethan-1-one] | 101 |
| O=C(COc1ccc(N2CCOCC2)nc1Cl)N1CCc2nc3ccccn3c2C1c1nc(-c2ccccc2)no1 (centres unmarked) [Example 1.8.1, 2-((2-chloro-6-morpholinopyridin-3-yl)oxy)-1-(1-(3-phenyl-1,2,4-oxadiazol-5-yl)-3,4-dihydroimidazo[1,2-a:5,4-c′]dipyridin-2(1H)-yl)ethan-1-one] | 16 |
| COc1ccc(C2c3c(nc4ccccn34)CCN2C(=O)COc2ccc3ccccc3c2)cc1O (centres unmarked) [Example 1.9.1, 1-(1-(3-hydroxy-4-methoxyphenyl)-3,4-dihydroimidazo[1,2-a:5,4-c′]dipyridin-2(1H)-yl)-2-(naphthalen-2-yloxy)ethan-1-one] | 230 |
| Cc1ccc(C2c3c(nc4ccccn34)CCN2C(=O)COc2ccc(Cl)cc2Cl)cc1C (centres unmarked) [Example 1.10.1, 2-(2,4-dichlorophenoxy)-1-(1-(3,4-dimethylphenyl)-3,4-dihydroimidazo[1,2-a:5,4-c′]dipyridin-2(1H)-yl)ethan-1-one] | 451 |
| O=C(COc1ccc(N2CCOCC2)nc1Cl)N1CCc2nc3ccccn3c2C1c1ccc(Cl)nc1F (centres unmarked) [Example 1.11.1, 1-(1-(6-chloro-2-fluoropyridin-3-yl)-3,4-dihydroimidazo[1,2-a:5,4-c′]dipyridin-2(1H)-yl)-2-((2-chloro-6-morpholinopyridin-3-yl)oxy)ethan-1-one] | 7 |
